Data taken from the supplement of paper PMC10307832.

Columns and labels:
Assay in all cases: relative viability (nuclei count vs DMSO), 5 days (fraction); higher = more cells survive
201T = system: 201T
In short: (§1)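 Values are medians from duplicate plates. Each reflects relative viability, defined as the nuclei count of treated wells over that of vehicle wells. Lung cancer cell lines in 1536-well plates were pin-tool dosed one day after seeding with one drug alone or with a fixed anchor-drug dose plus five library-drug doses (not always all listed) in √10 steps, then fixed, stained and imaged at 4× after 5 days.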

A-427 = system: A-427
In short: as §1

BEN = system: BEN
In short: as §1

COR-L23 = system: COR-L23
In short: as §1

EKVX = system: EKVX
In short: as §1

EMC-BAC-2 = system: EMC-BAC-2
In short: as §1

EPLC-272H = system: EPLC-272H
In short: as §1

HCC-827 = system: HCC-827
In short: as §1

LCLC-103H = system: LCLC-103H
In short: as §1

LK-2 = system: LK-2
In short: as §1

LXF-289 = system: LXF-289
In short: as §1

NCI-H1650 = system: NCI-H1650
In short: as §1

NCI-H1651 = system: NCI-H1651
In short: as §1

NCI-H1793 = system: NCI-H1793
In short: as §1

NCI-H1915 = system: NCI-H1915
In short: as §1

NCI-H2087 = system: NCI-H2087
In short: as §1

NCI-H2126 = system: NCI-H2126
In short: as §1

NCI-H2347 = system: NCI-H2347
In short: as §1

NCI-H358 = system: NCI-H358
In short: as §1

NCI-H460 = system: NCI-H460
In short: as §1

NCI-H596 = system: NCI-H596
In short: as §1

SW 1573 = system: SW 1573
In short: as §1

`Cc1cnc(-c2cnc(NCCNc3ccc(C#N)cn3)nc2-c2ccc(Cl)cc2Cl)[nH]1` + COc1cc2c(Oc3ccc(NC(=O)C4(C(=O)Nc5ccc(F)cc5)CC4)cc3F)ccnc2cc1OCCCN1CCOCC1 [Foretinib] (partner 0.25 µM) gave a relative viability (201T; first compound 0.08 µM) of 1.19, a relative viability (201T; first compound 0.253 µM) of 0.807 and a relative viability (201T; first compound 0.8 µM) of 1.16. The relative viability (201T; first compound 2.53 µM) was 1.14, the relative viability (A-427; first compound 0.08 µM) was 1.13 and the relative viability (A-427; first compound 0.253 µM) was 1.01. For the same compound, the relative viability (A-427; first compound 0.8 µM) was 0.861, the relative viability (A-427; first compound 2.53 µM) was 1.07 and the relative viability (BEN; first compound 0.08 µM) was 0.857. For the same compound, the relative viability (BEN; first compound 0.253 µM) was 0.68, the relative viability (BEN; first compound 0.8 µM) was 0.746 and the relative viability (BEN; first compound 2.53 µM) was 0.69. The relative viability (COR-L23; first compound 0.08 µM) was 0.853, the relative viability (COR-L23; first compound 0.253 µM) was 0.877 and the relative viability (COR-L23; first compound 0.8 µM) was 1.08. For the same compound, the relative viability (COR-L23; first compound 2.53 µM) was 0.951, the relative viability (EKVX; first compound 0.08 µM) was 0.588 and the relative viability (EKVX; first compound 0.253 µM) was 0.555. It also gave a relative viability (EKVX; first compound 0.8 µM) of 0.626, a relative viability (EKVX; first compound 2.53 µM) of 0.727 and a relative viability (EMC-BAC-2; first compound 0.08 µM) of 1.1. It also gave a relative viability (EMC-BAC-2; first compound 0.253 µM) of 0.964, a relative viability (EMC-BAC-2; first compound 0.8 µM) of 1.02 and a relative viability (EMC-BAC-2; first compound 2.53 µM) of 0.939. It also gave a relative viability (EPLC-272H; first compound 0.08 µM) of 0.737, a relative viability (EPLC-272H; first compound 0.253 µM) of 0.617 and a relative viability (EPLC-272H; first compound 0.8 µM) of 0.692. For the same compound, the relative viability (EPLC-272H; first compound 2.53 µM) was 0.747, the relative viability (HCC-827; first compound 0.08 µM) was 1.04 and the relative viability (HCC-827; first compound 0.8 µM) was 0.983. It also gave a relative viability (HCC-827; first compound 2.53 µM) of 0.976, a relative viability (LCLC-103H; first compound 0.08 µM) of 0.751 and a relative viability (LCLC-103H; first compound 0.253 µM) of 0.734. The relative viability (LCLC-103H; first compound 0.8 µM) was 0.745, the relative viability (LCLC-103H; first compound 2.53 µM) was 0.79 and the relative viability (LK-2; first compound 0.08 µM) was 1.6. It also gave a relative viability (LK-2; first compound 0.253 µM) of 0.82, a relative viability (LK-2; first compound 0.8 µM) of 0.942 and a relative viability (LK-2; first compound 2.53 µM) of 1.21. For the same compound, the relative viability (LXF-289; first compound 0.08 µM) was 1.03, the relative viability (LXF-289; first compound 0.253 µM) was 0.858 and the relative viability (LXF-289; first compound 0.8 µM) was 0.994. It also gave a relative viability (LXF-289; first compound 2.53 µM) of 1.02, a relative viability (NCI-H1650; first compound 0.08 µM) of 1.37 and a relative viability (NCI-H1650; first compound 0.253 µM) of 1.22. For the same compound, the relative viability (NCI-H1650; first compound 0.8 µM) was 1.25, the relative viability (NCI-H1650; first compound 2.53 µM) was 1.01 and the relative viability (NCI-H1651; first compound 0.08 µM) was 0.728. The relative viability (NCI-H1651; first compound 0.253 µM) was 0.777, the relative viability (NCI-H1651; first compound 0.8 µM) was 0.785 and the relative viability (NCI-H1651; first compound 2.53 µM) was 0.883. The relative viability (NCI-H1793; first compound 0.08 µM) was 0.807, the relative viability (NCI-H1793; first compound 0.253 µM) was 0.545 and the relative viability (NCI-H1793; first compound 0.8 µM) was 0.684. The relative viability (NCI-H1793; first compound 2.53 µM) was 0.723, the relative viability (NCI-H1915; first compound 0.08 µM) was 1.11 and the relative viability (NCI-H1915; first compound 0.253 µM) was 0.844. For the same compound, the relative viability (NCI-H1915; first compound 0.8 µM) was 1.1, the relative viability (NCI-H1915; first compound 2.53 µM) was 1.07 and the relative viability (NCI-H2087; first compound 0.08 µM) was 1.31. The relative viability (NCI-H2087; first compound 0.253 µM) was 1.06, the relative viability (NCI-H2087; first compound 0.8 µM) was 1.14 and the relative viability (NCI-H2087; first compound 2.53 µM) was 1.14. For the same compound, the relative viability (NCI-H2126; first compound 0.08 µM) was 1.33, the relative viability (NCI-H2126; first compound 0.253 µM) was 1.22 and the relative viability (NCI-H2126; first compound 0.8 µM) was 1. For the same compound, the relative viability (NCI-H2126; first compound 2.53 µM) was 1.08, the relative viability (NCI-H2347; first compound 0.08 µM) was 0.963 and the relative viability (NCI-H2347; first compound 0.253 µM) was 1.11. The relative viability (NCI-H2347; first compound 0.8 µM) was 0.877, the relative viability (NCI-H2347; first compound 2.53 µM) was 0.841 and the relative viability (NCI-H358; first compound 0.08 µM) was 0.735. For the same compound, the relative viability (NCI-H358; first compound 0.253 µM) was 0.597, the relative viability (NCI-H358; first compound 0.8 µM) was 0.404 and the relative viability (NCI-H358; first compound 2.53 µM) was 0.509. It also gave a relative viability (NCI-H460; first compound 0.08 µM) of 1.1, a relative viability (NCI-H460; first compound 0.253 µM) of 0.947 and a relative viability (NCI-H460; first compound 0.8 µM) of 0.981. It also gave a relative viability (NCI-H460; first compound 2.53 µM) of 0.885, a relative viability (NCI-H596; first compound 0.08 µM) of 0.929 and a relative viability (NCI-H596; first compound 0.253 µM) of 0.776. It also gave a relative viability (NCI-H596; first compound 0.8 µM) of 0.872, a relative viability (NCI-H596; first compound 2.53 µM) of 0.827 and a relative viability (SW 1573; first compound 0.08 µM) of 0.929. For the same compound, the relative viability (SW 1573; first compound 0.253 µM) was 0.87, the relative viability (SW 1573; first compound 0.8 µM) was 0.907 and the relative viability (SW 1573; first compound 2.53 µM) was 0.769.
